Test results: patent publication US12517136B2, “Il-17F-specific capture agents, compositions, and methods of using and making” (California Institute of Technology, priority 2015, dated 2026)
Like-named read-outs stand apart in the source and are kept apart here. Bridge positions count the residues as written; N and C are the ends. Square brackets hold non-standard residues; d marks the D form. Triazole bridges read from a SMILES are 1,4-linked. Peptide text beside a SMILES is read from it. * marks the point of attachment. ξ: configuration not given here. X2 = O=C(CCCC[C@@H]1SC[C@@H]2NC(=O)N[C@@H]21)NCCCOCCOCCOCCCN*; X1 = O=C(CCCCC1SC[C@H]2NC(=O)N[C@@H]12)NCCCOCCOCCOCCCN*; Biotin = O=C1N[C@H]2[C@H](CS[C@H]2CCCCC(=O)*)N1; Lys(N3) = [N-]=[N+]=NCCCC[C@H](N)C(=O)O; Thr(3ξ) = CC(O)[C@H](N)C(=O)O; AEEEA = NCCOCCOCCOCC(=O)O; Pra = C#CC[C@H](N)C(=O)O

Columns and labels:
[1] = test system: full-length His-tagged IL-17F and IL-17A proteins; assay: Point ELISA (IL-17F vs. IL-17A selectivity assay); assay type: binding, human; conditions: figure legends FIG. 2B, 4B, 4C
Protocol: Point ELISA (IL-17F vs. IL-17A selectivity assay). A black 96-well NeutrAvidin Coated High Binding Capacity plate (15510, Pierce) was coated with 2 μM macrocyclic peptide ligand in TBS (pH 7.6) for 2 h at room temperature. The plate was aspirated and then washed with TBS (5×) and Wash Buffer (0.05% (v/v) Tween-20 in PBS, 1×). Full-length His-tagged IL-17F (ab167911, Abcam) and IL-17A (ab166882, Abcam) proteins were prepared at 200 and 50 nM in Wash Buffer and incubated in the designated microwells for 90 min at room temperature. Microwells were aspirated and subsequently washed with Wash Buffer (10×). To detect the bound IL-17F and IL-17A proteins, Alkaline Phosphatase (AP)-conjugated Anti-6×His Tag® antibody [HIS-1] (ab49746, Abcam) was prepared at 1:10,000 dilution and added to the microwells for 1 h at room temperature. The plate was aspirated and washed with Wash Buffer (5×). AttoPhos® AP Fluorescent Substrate System (S1000, Promega) was employed to develop the microwells. Using an excitation wavelength of 430 nm, fluorescent emission at 535 nm was recorded by Beckman Coulter DTX880 photometer.
(§1) For these assays, the full-length His-tagged IL-17F and IL-17A proteins were captured using the macrocyclic peptide ligands immobilized on a NeutrAvidin-coated plate.
Point ELISA (IL-17F vs. IL-17A selectivity assay). A black 96-well NeutrAvidin Coated High Binding Capacity plate (15510, Pierce) was coated with 2 μM macrocyclic peptide ligand in TBS (pH 7.6) for 2 h at room temperature. Biotinylated monoclonal anti-IL17F (TA319597, Origene) was coated at 4 μg/mL in TBS as a control. The plate was aspirated and then washed with TBS (5×) and Wash Buffer (0.05% (v/v) Tween-20 in PBS, 1×). Full-length His-tagged IL-17F (ab167911, Abcam) and IL-17A (ab166882, Abcam) proteins were prepared at 100 nM in Wash Buffer and incubated in the designated microwells for 90 min at room temperature. Microwells were aspirated and subsequently washed with Wash Buffer (10×). To detect the bound IL-17F and IL-17A proteins, Alkaline Phosphatase (AP)-conjugated Anti-6×His Tag® antibody [HIS-1] (ab49746, Abcam) was prepared at 1:10,000 dilution and added to the microwells for 1 h at room temperature. The plate was aspirated and washed with Wash Buffer (5×). AttoPhos® AP Fluorescent Substrate System (S1000, Promega) was employed to develop the microwells. Using an excitation wavelength of 430 nm, fluorescent emission at 535 nm was recorded by Beckman Coulter DTX880 photometer.
as §1

[2] = test system: His-tagged IL-17F epitopes; assay: Assay to determine orientation of macrocycle binding to IL-17F Epitope1 (point ELISA); conditions: for binding to epitope scrambled N-terminal to the click handle: epitope 2 μM, no-epitope background subtracted; for binding to the His-tagged IL-17F epitopes (overall, preferred sequence): three His-tagged epitopes, 2 μM
Protocol: Assay to determine orientation of macrocycle binding to IL-17F Epitope1. A black 96-well NeutrAvidin Coated High Binding Capacity plate (15510, Pierce) was coated with 2 μM macrocyclic peptide ligand in TBS (pH 7.6) for 2 h at room temperature. Biotinylated monoclonal anti-IL17F (TA319597, Origene) was coated at 4 μg/mL in TBS as a control. The plate was aspirated and then washed with TBS (5×) and Wash Buffer (0.05% (v/v) Tween-20 in PBS, 1×). Chemically synthesized His-tagged IL-17F epitopes were prepared at 2 μM in Wash Buffer and incubated in the designated microwells for 90 min at room temperature. Wash Buffer without epitope was added as a control. Microwells were aspirated and subsequently washed with Wash Buffer (10×). To detect the bound IL-17F epitopes, Alkaline Phosphatase (AP)-conjugated Anti-6×His Tag® antibody [HIS-1] (ab49746, Abcam) was prepared at 1:10,000 dilution and added to the microwells for 1 h at room temperature. The plate was aspirated and washed with Wash Buffer (5×). AttoPhos® AP Fluorescent Substrate System (S1000, Promega) was employed to develop the microwells. Using an excitation wavelength of 430 nm, fluorescent emission at 535 nm was recorded by Beckman Coulter DTX880 photometer. Data are shown after subtraction of the no-epitope background.
For this experiment, the IL-17F Epitope1 was re-synthesized with a His6 assay handle and C48S substitution instead of a click handle. Two additional His-tagged IL-17F epitopes were synthesized to contain strategic scrambling of the sequences either N-terminal or C-terminal to C48S. Point ELISAs for the three His-tagged IL-17F epitopes were conducted against the immobilized macrocyclic peptide ligands.

IL-17F [3] = biological target: T1, IL-17F (Homo sapiens, UniProt Q96PD4); assay: KD of PCC macrocycles and biligands against IL-17F (FIG. 12C); assay type: binding
T1 sequence (Q96PD4 31-163): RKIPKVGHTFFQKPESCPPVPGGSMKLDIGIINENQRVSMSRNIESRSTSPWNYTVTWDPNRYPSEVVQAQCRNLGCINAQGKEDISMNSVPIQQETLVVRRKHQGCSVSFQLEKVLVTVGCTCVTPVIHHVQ

IL-17F [4] = biological target: T1, IL-17F; assay: Sandwich ELISA: immobilized macrocyclic peptide ligand captures full-length His-tagged IL-17F; assay type: binding; design: Full-length His-tagged IL-17F protein (ab167911, Abcam); purchased Abcam ab167911
Protocol: Sandwich ELISA. A black 96-well NeutrAvidin Coated High Binding Capacity plate (15510, Pierce) was coated with 2 μM macrocyclic peptide ligand in TBS (25 mM Tris-HCl, 150 mM NaCl, pH 7.6) for 2 h at room temperature. Biotinylated monoclonal anti-IL17F (TA319597, Origene) was coated at 4 μg/mL in TBS as a control. The plate was aspirated and then washed with TBS (5×) and Wash Buffer (0.05% (v/v) Tween-20 in PBS, 1×). Full-length His-tagged IL-17F protein (ab167911, Abcam) was serially diluted in Wash Buffer (from 800 to 0 nM) and incubated in the designated microwells for 90 min at room temperature. Microwells were aspirated and subsequently washed with Wash Buffer (10×). […] (ab49746, Abcam) was prepared at 1:10,000 dilution and added to the microwells for 1 h at room temperature. The plate was aspirated and washed with Wash Buffer (5×). AttoPhos® AP Fluorescent Substrate System (S1000, Promega) was employed to develop the microwells. Using an excitation wavelength of 430 nm, fluorescent emission at 535 nm was recorded by Beckman Coulter DTX880 photometer. Titration curves were fit using a four-parameter regression curve fitting program (Origin 8.5) to determine EC50 values.
For these assays, a dilution series of full-length His-tagged IL-17F protein was captured using the macrocyclic peptide ligands immobilized on a NeutrAvidin-coated plate.
Sandwich ELISA. […]

[5] = biological target: Plasmodium falciparum Histidine Rich Protein-2 (Pf.HRP-2) (Plasmodium falciparum, UniProt P05227); assay type: binding

NCCCC[C@@H]1NC(=O)[C@H](CCCCN)NC(=O)[C@@H](NC(=O)COCCOCCOCCNC(=O)CCCC[C@@H]2SC[C@@H]3NC(=O)N[C@@H]32)Cc2cn(nn2)CCCC[C@@H](C(N)=O)NC(=O)[C@@H]2CCCN2C(=O)[C@H](Cc2c[nH]c3ccccc23)NC(=O)CNC1=O [Cy(KKGWP), Biotin-PEG3-Cy(KKGWP) (SEQ ID NO:23)] ({Biotin-AEEEA}-[Pra]KKGWP[Lys(N3)]-NH2; triazole 1-7)
preferential binding, IL-17F vs IL-17A (in words) [1]: preferential binding to IL-17F

NCCCC[C@@H]1NC(=O)[C@H](CCC(N)=O)NC(=O)[C@@H](N)Cc2cn(nn2)CCCC[C@@H](C(=O)NCCCOCCOCCOCCCNC(=O)CCCC[C@@H]2SC[C@@H]3NC(=O)N[C@@H]32)NC(=O)[C@@H]2CCCN2C(=O)CNC(=O)[C@H](Cc2c[nH]cn2)NC1=O [Cy(QKHGP), Cy(QKHGP) (SEQ ID NO:15)-PEG3-biotin] (H-[Pra]QKHGP[Lys(N3)]-X2; triazole 1-7)
preferential binding, IL-17F vs IL-17A (in words) [1]: preferential binding to IL-17F | preferential binding, IL-17F vs IL-17A (in words) ([1]; listed as QKHGP): preferential binding to IL-17F or IL-17A

C[C@@H]1NC(=O)[C@H](CCCNC(=N)N)NC(=O)[C@H](CCCNC(=N)N)NC(=O)[C@@H](N)Cc2cn(nn2)CCCC[C@@H](C(=O)NCCCOCCOCCOCCCNC(=O)CCCCC2SC[C@H]3NC(=O)N[C@@H]23)NC(=O)[C@H](CO)NC(=O)[C@H](CCC(N)=O)NC1=O (stereo partly shown) [Cy(RRAQS), Cy(RRAQS) (SEQ ID NO:10)-PEG3-biotin] (H-[Pra]RRAQS[Lys(N3)]-X1; triazole 1-7)
preferential binding, IL-17F vs IL-17A (in words) [1]: preferential binding to IL-17F | binding to epitope scrambled N-terminal to the click handle [2]: Binding was destroyed | binding to the His-tagged IL-17F epitopes (overall, preferred sequence) [2]: preferential binding to the sequence FFQKPES

CC(O)[C@@H]1NC(=O)[C@H](C)NC(=O)[C@H](CCCNC(=N)N)NC(=O)[C@H](CCCNC(=N)N)NC(=O)[C@@H](N)Cc2cn(nn2)CCCC[C@@H](C(=O)NCCCOCCOCCOCCCNC(=O)CCCCC2SC[C@H]3NC(=O)N[C@@H]23)NC(=O)[C@H](CO)NC1=O (stereo partly shown) [Cy(RRATS), Cy(RRATS) (SEQ ID NO:9)-PEG3-biotin] (H-[Pra]RRA[Thr(3ξ)]S[Lys(N3)]-X1; triazole 1-7)
preferential binding, IL-17F vs IL-17A (in words) [1]: preferential binding to IL-17F | preferential binding, IL-17F vs IL-17A (in words) ([1]; listed as RRATS): preferential binding to IL-17F or IL-17A | binding to epitope scrambled N-terminal to the click handle [2]: Binding was destroyed | binding to the His-tagged IL-17F epitopes (overall, preferred sequence) [2]: preferential binding to the sequence FFQKPES

CC1N[C@@H](CCCCN)C(=O)N[C@H](C(N)=O)CCCCn2cc(nn2)C[C@H](NC(=O)COCCOCCOCCNC(=O)CCCC[C@@H]2SC[C@@H]3NC(=O)N[C@@H]32)C(=O)N[C@@H](CCCNC(=N)N)C(=O)N[C@@H](CO)C(=O)N[C@@H](Cc2ccc(O)cc2)C(=O)N[C@H]1CC(N)=O (stereo partly shown) [Cy(RSYNK), Biotin-PEG3-Cy(RSYNK) (SEQ ID NO:28)]
preferential binding, IL-17F vs IL-17A (in words) [1]: preferential binding to IL-17F | preferential binding, IL-17F vs IL-17A (in words) ([1]; listed as RSYNK): preferential binding to IL-17F or IL-17A | Kd (IL-17F [3]; read-out: KD against IL-17F): 15 nM | EC50 (IL-17F [4]; 2 μM PEG3-biotin ligand on NeutrAvidin plate, His-tagged IL-17F 800 to 0 nM): 15 ± 5 nM | binding affinity compared in words (ligand vs biotinylated monoclonal anti-IL17F) (IL-17F [4]; antibody coated at 4 μg/mL): exceeds the binding affinity of the similarly assayed biotinylated monoclonal anti-IL17F

C[C@@H]1NC(=O)[C@H](CCCNC(=N)N)NC(=O)[C@H](CCCNC(=N)N)NC(=O)[C@@H](NC(=O)COCCOCCOCCNC(=O)[C@@H]2CCCCn3cc(nn3)C[C@H](NC(=O)COCCOCCOCCNC(=O)CCCC[C@@H]3SC[C@@H]4NC(=O)N[C@@H]43)C(=O)N[C@@H](CCCNC(=N)N)C(=O)N[C@@H](CO)C(=O)N[C@@H](Cc3ccc(O)cc3)C(=O)N[C@@H](CC(N)=O)C(=O)N[C@@H](CCCCN)C(=O)N2)Cc2cn(nn2)CCCC[C@@H](C(N)=O)NC(=O)[C@H](CO)NC(=O)[C@H]([C@@H](C)O)NC1=O [Cy(RSYNK)-PEG3-Cy(RRATS), Biotin-PEG3-Cy(RSYNK) (SEQ ID NO:28)-PEG3-Cy(RRATS) (SEQ ID NO: 9)] ({Biotin-AEEEA}-[Pra]RSYNK[Lys(N3)][AEEEA][Pra]RRATS[Lys(N3)]-NH2; triazole 1-7, 9-15)
Kd (IL-17F [3]): 0.25 nM | improvement in affinity relative to the individual PCC macrocyclic ligands (IL-17F [3]): > 100 fold

C[C@@H](O)[C@@H]1NC(=O)[C@@H](N)Cc2cn(nn2)CCCC[C@@H](C(=O)NCCCOCCOCCOCCCNC(=O)CCCC[C@@H]2SC[C@@H]3NC(=O)N[C@@H]32)NC(=O)[C@@H]2CCCN2C(=O)CNC(=O)[C@H](Cc2c[nH]cn2)NC(=O)[C@H](CCCCN)NC1=O [Cy(TKHGP), Cy(TKHGP) (SEQ ID NO:16)-PEG3-biotin] (H-[Pra]TKHGP[Lys(N3)]-X2; triazole 1-7)
preferential binding, IL-17F vs IL-17A (in words) [1]: preferential binding to IL-17F

N=C(N)NCCC[C@@H]1NC(=O)[C@H](Cc2ccc(O)cc2)NC(=O)[C@H](Cc2ccc(O)cc2)NC(=O)[C@H](CCCCN)NC(=O)[C@H](Cc2ccc(O)cc2)NC(=O)[C@@H](N)Cc2cn(nn2)CCCC[C@@H](C(N)=O)NC1=O [Cy(YKYYR), Cy(YKYYR) (SEQ ID NO:29)] (H-[Pra]YKYYR[Lys(N3)]-NH2; triazole 1-7)
EC50 [5]: 220 nM
